In US20250340557A1, “PYRIMIDINE DERIVATIVE” (ASKA PHARMACEUTICAL CO., LTD., priority 2022, published 2025):

What follows are molecules tested against T1, human mPGES-1 (Homo sapiens, UniProt O14684) (assay: Test for mPGES-1 inhibitory activity (microsomal enzyme, PGE2 EIA)). Details: microsomes from COS-1 cells transfected with human mPGES-1 cDNA; substrate PGH2 1 μM; 4° C., 4 minutes; PGE2 measured by EIA; read-out: h mPGES1 IC50.
T1 construct: made in house; host or cells: COS-1 cells (transient transfection; microsomal fraction used as enzyme)
T1 sequence (O14684 1-152): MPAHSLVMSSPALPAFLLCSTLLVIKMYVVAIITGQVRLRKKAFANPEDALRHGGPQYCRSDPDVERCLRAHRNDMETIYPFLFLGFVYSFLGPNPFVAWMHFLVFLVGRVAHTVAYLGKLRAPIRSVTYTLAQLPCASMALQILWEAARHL
Assay type: biochemical
Experimental: Test Example 1: Test for mPGES-1 Inhibitory Activity
Microsomes were prepared from COS-1 cells transiently transfected with a plasmid containing human mPGES-1 cDNA, and used as mPGES-1 enzyme. The mPGES-1 enzyme was diluted with a sodium phosphate buffer (pH 7.2) containing reduced glutathione (2.5 mM) and EDTA (1 mM), DMSO or a DMSO solution of a test compound (final concentration of DMSO was 2%) was added to the enzyme, and the mixture was preincubated at 4° C. for 15 minutes. Then, PGH2 (Prostaglandin H2) as the substrate was added at a final concentration of 1 μM to start the enzymatic reaction, and after incubation at 4° C. for 4 minutes, a solution of ferric chloride (25 mM) and citric acid (50 mM) was added to terminate the enzymatic reaction. Generated PGE2 (Prostaglandin E2) was measured by using Prostaglandin E2 Express EIA Kit (Cayman Chemical). IC50 values were determined by using a standard method.

Question: How did the IC50 turn out when `Cc1nc(-c2c(C(F)(F)F)ccc(CNC(=O)C3(F)CCN(c4ccc(C(F)(F)F)cn4)CC3)c2F)[nH]c(=O)c1F` [Example 51, 4-fluoro-N-[2-fluoro-3-(5-fluoro-4-methyl-6-oxo-1,6-dihydropyrimidin-2-yl)-4-(trifluoromethyl)benzyl]-1-[5-(trifluoromethyl)pyridin-2-yl]piperidine-4-carboxamide] was run?
Answer: Its IC50 is less than 1 nM.

Question: How did the IC50 turn out when `Cc1nc(-c2c(C(F)(F)F)ccc(CNC(=O)C3CCN(c4ncc(Cl)cc4F)CC3)c2F)[nH]c(=O)c1F` [Example 52, 1-(5-chloro-3-fluoropyridin-2-yl)-N-[2-fluoro-3-(5-fluoro-4-methyl-6-oxo-1,6-dihydropyrimidin-2-yl)-4-(trifluoromethyl)benzyl]piperidine-4-carboxamide] was run?
Answer: The IC50 was 15 nM.

Question: Which IC50 does the source give for `Cc1cc(=O)[nH]c(-c2c(C(F)(F)F)ccc(CNC(=O)C3CCN(c4ccc(OC(F)(F)F)cn4)CC3)c2F)n1` [Example 53, N-[2-fluoro-3-(4-methyl-6-oxo-1,6-dihydropyrimidin-2-yl)-4-(trifluoromethyl)benzyl]-1-[5-(trifluoromethoxy)pyridin-2-yl]piperidine-4-carboxamide] here?
Answer: The IC50 was 49 nM.

Question: With `O=C(NCc1ccc(C(F)(F)F)c(-c2nc(C(F)F)cc(=O)[nH]2)c1F)C1CCN(c2ncc(C(F)(F)F)cc2F)CC1` [Example 55, N-{3-[4-(difluoromethyl)-6-oxo-1,6-dihydropyrimidin-2-yl]-2-fluoro-4-(trifluoromethyl)benzyl}-1-[3-fluoro-5-(trifluoromethyl)pyridin-2-yl]piperidine-4-carboxamide] as the molecule, how does the IC50 read?
Answer: The IC50 was less than 1 nM.

Question: How did the IC50 turn out when `Cc1cc(=O)[nH]c(-c2c(C(F)(F)F)ccc(CNC(=O)C3(F)CCN(c4ccc(C(F)(F)F)cn4)CC3)c2F)n1` [Example 56, 4-fluoro-N-[2-fluoro-3-(4-methyl-6-oxo-1,6-dihydropyrimidin-2-yl)-4-(trifluoromethyl)benzyl]-1-[5-(trifluoromethyl)pyridin-2-yl]piperidine-4-carboxamide] was run?
Answer: The IC50 was 21 nM.

Question: `CCc1nc(-c2c(C(F)(F)F)ccc(CNC(=O)C3CCN(c4ccc(Cl)cn4)CC3)c2F)[nH]c(=O)c1F` [Example 57, 1-(5-chloropyridin-2-yl)-N-[3-(4-ethyl-5-fluoro-6-oxo-1,6-dihydropyrimidin-2-yl)-2-fluoro-4-(trifluoromethyl)benzyl]piperidine-4-carboxamide] was tested. Which IC50 did it give?
Answer: Its IC50 is less than 1 nM.

Question: With `O=C(NCc1ccc(C(F)(F)F)c(-c2nc(C(F)(F)F)cc(=O)[nH]2)c1F)C1CCN(c2ccc(F)cc2)CC1` [Example 58, N-{2-fluoro-3-[6-oxo-4-(trifluoromethyl)-1,6-dihydropyrimidin-2-yl]-4-(trifluoromethyl)benzyl}-1-(4-fluorophenyl)piperidine-4-carboxamide] as the molecule, how does the IC50 read?
Answer: The IC50 was less than 1 nM.

Question: How did the IC50 turn out when `Cc1cccc(N2CCC(C(=O)NCc3ccc(C(F)(F)F)c(-c4nc(C(F)(F)F)cc(=O)[nH]4)c3F)CC2)c1` [Example 59, N-{2-fluoro-3-[6-oxo-4-(trifluoromethyl)-1,6-dihydropyrimidin-2-yl]-4-(trifluoromethyl)benzyl}-1-(3-methylphenyl)piperidine-4-carboxamide] was run?
Answer: Its IC50 is 4.2 nM.

Question: For `Cc1cc(N2CCC(C(=O)NCc3ccc(C(F)(F)F)c(-c4nc(C(F)(F)F)cc(=O)[nH]4)c3F)CC2)ccc1F` [Example 60, N-{2-fluoro-3-[6-oxo-4-(trifluoromethyl)-1,6-dihydropyrimidin-2-yl]-4-(trifluoromethyl)benzyl}-1-(4-fluoro-3-methylphenyl)piperidine-4-carboxamide], which IC50 is on record?
Answer: The IC50 was less than 1 nM.

Question: Which IC50 does the source give for `Cc1ccc(N2CCC(C(=O)NCc3ccc(C(F)(F)F)c(-c4nc(C(F)(F)F)cc(=O)[nH]4)c3F)CC2)cc1` [Example 61, N-{2-fluoro-3-[6-oxo-4-(trifluoromethyl)-1,6-dihydropyrimidin-2-yl]-4-(trifluoromethyl)benzyl}-1-(4-methylphenyl)piperidine-4-carboxamide] here?
Answer: The IC50 was 0.87 nM.

Question: For `O=C(NCc1ccc(C(F)(F)F)c(-c2nc(C(F)(F)F)cc(=O)[nH]2)c1F)C1CCN(c2cccc(Cl)c2)CC1` [Example 62, 1-(3-chlorophenyl)-N-{2-fluoro-3-[6-oxo-4-(trifluoromethyl)-1,6-dihydropyrimidin-2-yl]-4-(trifluoromethyl)benzyl}piperidine-4-carboxamide], which IC50 is on record?
Answer: Its IC50 is less than 1 nM.

Question: For `O=C(NCc1ccc(C(F)(F)F)c(-c2nc(C(F)(F)F)cc(=O)[nH]2)c1F)C1CCN(c2ccc(C(F)(F)F)cc2)CC1` [Example 63, N-{2-fluoro-3-[6-oxo-4-(trifluoromethyl)-1,6-dihydropyrimidin-2-yl]-4-(trifluoromethyl)benzyl}-1-[4-(trifluoromethyl)phenyl]piperidine-4-carboxamide], which IC50 is on record?
Answer: Its IC50 is 1.1 nM.

Question: How did the IC50 turn out when `O=C(NCc1ccc(C(F)(F)F)c(-c2nc(C(F)(F)F)cc(=O)[nH]2)c1F)C1CCN(c2ccc(Cl)cc2)CC1` [Example 64, 1-(4-chlorophenyl)-N-{2-fluoro-3-[6-oxo-4-(trifluoromethyl)-1,6-dihydropyrimidin-2-yl]-4-(trifluoromethyl)benzyl}piperidine-4-carboxamide] was run?
Answer: Its IC50 is less than 1 nM.

Question: `O=C(NCc1ccc(C(F)(F)F)c(-c2nc(C(F)(F)F)cc(=O)[nH]2)c1F)C1CCN(c2cccc(C(F)F)c2)CC1` [Example 65, 1-[3-(difluoromethyl)phenyl]-N-{2-fluoro-3-[6-oxo-4-(trifluoromethyl)-1,6-dihydropyrimidin-2-yl]-4-(trifluoromethyl)benzyl}piperidine-4-carboxamide] was tested. Which IC50 did it give?
Answer: Its IC50 is less than 1 nM.

Question: How did the IC50 turn out when `O=C(NCc1ccc(C(F)(F)F)c(-c2nc(C(F)(F)F)cc(=O)[nH]2)c1F)C1CCN(c2ccc(Cl)c(Cl)c2)CC1` [Example 66, 1-(3,4-dichlorophenyl)-N-{2-fluoro-3-[6-oxo-4-(trifluoromethyl)-1,6-dihydropyrimidin-2-yl]-4-(trifluoromethyl)benzyl}piperidine-4-carboxamide] was run?
Answer: Its IC50 is less than 1 nM.

Question: With `O=C(NCc1ccc(C(F)(F)F)c(-c2nc(C(F)(F)F)cc(=O)[nH]2)c1F)C1CCN(c2cccc(C(F)(F)F)c2)CC1` [Example 67, N-{2-fluoro-3-[6-oxo-4-(trifluoromethyl)-1,6-dihydropyrimidin-2-yl]-4-(trifluoromethyl)benzyl}-1-[3-(trifluoromethyl)phenyl]piperidine-4-carboxamide] as the molecule, how does the IC50 read?
Answer: Its IC50 is less than 1 nM.

Question: Which IC50 does the source give for `O=C(NCc1ccc(C(F)(F)F)c(-c2nc(C(F)(F)F)cc(=O)[nH]2)c1F)C1CCN(c2ccc(OC(F)(F)F)cc2)CC1` [Example 68, N-{2-fluoro-3-[6-oxo-4-(trifluoromethyl)-1,6-dihydropyrimidin-2-yl]-4-(trifluoromethyl)benzyl}-1-[4-(trifluoromethoxy)phenyl]piperidine-4-carboxamide] here?
Answer: Its IC50 is less than 1 nM.

Question: Which IC50 does the source give for `O=C(NCc1ccc(C(F)(F)F)c(-c2nc(C(F)(F)F)cc(=O)[nH]2)c1F)C1CCN(c2cccc(Cl)c2Cl)CC1` [Example 69, 1-(2,3-dichlorophenyl)-N-{2-fluoro-3-[6-oxo-4-(trifluoromethyl)-1,6-dihydropyrimidin-2-yl]-4-(trifluoromethyl)benzyl}piperidine-4-carboxamide] here?
Answer: Its IC50 is 8.4 nM.

Question: Which IC50 does the source give for `O=C(NCc1ccc(C(F)(F)F)c(-c2nc(C(F)(F)F)cc(=O)[nH]2)c1F)C1CCN(c2ccc(Cl)cc2F)CC1` [Example 70, 1-(4-chloro-2-fluorophenyl)-N-{2-fluoro-3-[6-oxo-4-(trifluoromethyl)-1,6-dihydropyrimidin-2-yl]-4-(trifluoromethyl)benzyl}piperidine-4-carboxamide] here?
Answer: The IC50 was 10 nM.

Question: For `O=C(NCc1ccc(C(F)(F)F)c(-c2nc(C(F)(F)F)cc(=O)[nH]2)c1F)C1CCN(c2ccc(OC(F)F)cc2)CC1` [Example 71, 1-[4-(difluoromethoxy)phenyl]-N-{2-fluoro-3-[6-oxo-4-(trifluoromethyl)-1,6-dihydropyrimidin-2-yl]-4-(trifluoromethyl)benzyl}piperidine-4-carboxamide], which IC50 is on record?
Answer: Its IC50 is 10 nM.

Question: `Cc1nc(-c2c(C(F)(F)F)ccc(CNC(=O)C3CCN(c4ccc(OC(F)(F)F)cc4)CC3)c2F)[nH]c(=O)c1F` [Example 72, N-[2-fluoro-3-(5-fluoro-4-methyl-6-oxo-1,6-dihydropyrimidin-2-yl)-4-(trifluoromethyl)benzyl]-1-[4-(trifluoromethoxy)phenyl]piperidine-4-carboxamide] was tested. Which IC50 did it give?
Answer: The IC50 was less than 1 nM.

Question: `Cc1nc(-c2c(C(F)(F)F)ccc(CNC(=O)C3CCN(c4ccc(Cl)c(Cl)c4)CC3)c2F)[nH]c(=O)c1F` [Example 73, 1-(3,4-dichlorophenyl)-N-[2-fluoro-3-(5-fluoro-4-methyl-6-oxo-1,6-dihydropyrimidin-2-yl)-4-(trifluoromethyl)benzyl]piperidine-4-carboxamide] was tested. Which IC50 did it give?
Answer: Its IC50 is 4.4 nM.

Question: `O=C(NCc1ccc(C(F)(F)F)c(-c2nc(C(F)(F)F)cc(=O)[nH]2)c1F)C1CCN(c2cccc(OC(F)(F)F)c2)CC1` [Example 74, N-{2-fluoro-3-[6-oxo-4-(trifluoromethyl)-1,6-dihydropyrimidin-2-yl]-4-(trifluoromethyl)benzyl}-1-[3-(trifluoromethoxy)phenyl]piperidine-4-carboxamide] was tested. Which IC50 did it give?
Answer: The IC50 was less than 1 nM.

Question: How did the IC50 turn out when `N#Cc1ccc(N2CCC(C(=O)NCc3ccc(C(F)(F)F)c(-c4nc(C(F)(F)F)cc(=O)[nH]4)c3F)CC2)c(Cl)c1` [Example 75, 1-(2-chloro-4-cyanophenyl)-N-{2-fluoro-3-[6-oxo-4-(trifluoromethyl)-1,6-dihydropyrimidin-2-yl]-4-(trifluoromethyl)benzyl}piperidine-4-carboxamide] was run?
Answer: The IC50 was less than 1 nM.
